Patent US20230069174A1, “NITROGEN-CONTAINING HETEROCYCLIC AUTOTAXIN INHIBITOR, AND COMPOSITION CONTAINING SAME AND USE THEREOF” (SICHUAN HAISCO PHARMACEUTICAL CO., LTD., priority 2019, published 2023)
pIC50: −log10 of the molar value. Like-named read-outs stand apart in the source and are kept apart here.

Key:
[1] = Pharmacokinetic experiment in mice (single dose iv and intragastric); assay type: in vivo; conditions: mouse, plasma, male C57 mice; for bioavailability: po 10 mg/kg vs iv 2.5 mg/kg, read-out: F (bioavailability)
Method: Experimental objective: In this experiment, a single dose of each test compound was administered to C57 mice intravenously and intragastrically, the concentrations of the compounds 35, 37 and 38 in plasma of the mice were measured, and the pharmacokinetic characteristics and bioavailability of each test compound in mice were evaluated.
Experimental animals: Male C57 mice, 20-25 g, 6-8 weeks old, 18 mice/compound. The experimental animals were purchased from CHENGDU DOSSY EXPERIMENTAL ANIMALS CO., LTD.
Experimental method: On the day of the experiment, 18 C57 mice were randomly grouped according to their body weight. The animals were fasted with water available for 12 to 14 hours one day before the administration of a test compound, and were fed 4 hours after the administration.
Before and after the administration, 0.08 ml of blood was taken from the orbit of the […] under isoflurane anesthesia, and placed in an EDTAK2 centrifuge tube. Centrifugation was carried out at 5000 rpm at 4° C. for 10 min and the plasma was collected.
Time points for plasma collection in G1 group: 0, 5, 15, 30 min, 1, 2, 4, 6, 8, and 24 h.
Time points for plasma collection in G2 group: 0, 15, 30 min, 1, 2, 4, 6, 8, and 24 h.
Before analysis and detection, all samples were stored at −80° C.
30 μL of each of plasma sample, standard curve and quality control sample was taken, and 200 μL of acetonitrile solution containing internal standard was added, and the mixture was homogeneously mixed by vortex, and then centrifuged at 12000 rpm for 10 min at 4° C. The supernatant was taken and added into a 96-well plate and analyzed by LC-MS/MS.
The main pharmacokinetic parameters were analyzed by non-compartmental model using WinNonlin 8.0 software.

ATX = molecular target: T1, ATX (Homo sapiens, UniProt Q13822); test: ATX inhibitory activity: LPA production in pooled human plasma, LC-MS-MS; assay type: biochemical; conditions: 37° C. 2 h
T1 construct: ATX activity was detected by detecting LPA production in pooled human plasma; from tissue; host or cells: pooled human plasma (heparin-anticoagulated whole blood, centrifuged)
Method: Experimental subject: compounds to be tested.
ATX activity was detected by detecting LPA production in pooled human plasma. Whole blood anticoagulated with heparin was collected and centrifuged, and then plasma was collected. 5-μL gradient dilution of the compound to be tested or DMSO was added to 95-μL plasma, incubated at 37° C. for 2 h, then a stop solution (40 mM disodium hydrogen phosphate buffer, containing a buffer solution (containing 30 mM citric acid, pH=4)) was added. LPA in plasma was detected by LC-MS-MS before and after incubation.
LPA (18:2) and (20:4) LC-MS-MS analytical method
Using a 1.5 mL EP tube, 3.0 μL of each of the working solutions for standard curve and quality control was taken and added to 27.0 μL of water. After homogeneously mixing by vortex, 400 μL of internal standard solution was added. After homogeneously mixing by vortex, the mixture was centrifuged at 4° C. for 10 min. 180 μL of supernatant was taken and added into a 96-well plate, waiting for sample injection.
10 μL of the compound to be tested (10 mg/ml) was precisely pipetted into an EP tube, 990 μL of DMSO solution was added, and the mixture was vortexed to completely dissolve to obtain a solution (100 μg/mL).
Inhibition rate of ATX receptor activity was calculated in the following way: inhibition rate %=((LPAc−LPA0)−(LPAi−LPA0))/(LPAc−LPA0)*100%, wherein LPAc was the LPA content in plasma after DMSO was added and incubated for 2 h, LPA0 was the LPA content in plasma before DMSO was added for incubation, and LPAi was the LPA content in plasma after test compound was added and incubated for 2 h.

[2] = LPA 18:2 readout, read-out: Inhibitory activity against ATX receptor, LPA 18:2 IC50
[3] = LPA 20:4 readout, read-out: Inhibitory activity against ATX receptor, LPA 20:4 IC50

O=C(Cc1nnc(-c2cnc(N[C@@H]3Cc4ccc(C(F)F)cc4C3)nc2)o1)N1CCc2[nH]nnc2C1 [Compound 37, (R)-2-(5-(2-((5-(difluoromethyl)-2,3-dihydro-1H-inden-2-yl)amino)pyrimidin-5-yl)-1,3,4-oxadiazol-2-yl)-1-(1,4,6,7-tetrahydro-5H-[1,2,3]triazolo[4,5-c]pyridin-5-yl)ethan-1-one]
bioavailability [1]: 17.8%
AUC ([1]; iv 2.5 mg/kg): 3790 ng·h/mL
C0 ([1]; iv 2.5 mg/kg): 6640 ng/mL
half-life ([1]; iv 2.5 mg/kg): 53.3 min
AUC ([1]; po 10 mg/kg): 2700 ng·h/mL
Cmax ([1]; po 10 mg/kg): 1600 ng/mL
Tmax ([1]; po 10 mg/kg): 15 min
half-life ([1]; po 10 mg/kg): 78.6 min
pIC50 (ATX; [2]): 8.32
pIC50 (ATX; [3]): 8.32

O=C(Cc1nnc(-c2cnc(N[C@@H]3Cc4ccc(C(F)(F)F)cc4C3)nc2)o1)N1CCc2[nH]nnc2C1 [Compound 35, (R)-1-(1,4,6,7-tetrahydro-5H-[1,2,3]triazolo[4,5-c]pyridin-5-yl)-2-(5-(2-((5-(trifluoromethyl)-2,3-dihydro-1H-inden-2-yl)amino)pyrimidin-5-yl)-1,3,4-oxadiazol-2-yl)ethan-1-one]
bioavailability [1]: 35.6%
AUC ([1]; iv 2.5 mg/kg): 6780 ng·h/mL
C0 ([1]; iv 2.5 mg/kg): 6850 ng/mL
half-life ([1]; iv 2.5 mg/kg): 61.2 min
AUC ([1]; po 10 mg/kg): 9650 ng·h/mL
Cmax ([1]; po 10 mg/kg): 3370 ng/mL
Tmax ([1]; po 10 mg/kg): 30 min
half-life ([1]; po 10 mg/kg): 56.8 min
pIC50 (ATX; [2]): 8.66
pIC50 (ATX; [3]): 8.65
